Measurements taken from patent publication US7432283B2, “Heterocyclic GABAA subtype selective receptor modulators” (Roche Palo Alto LLC, priority 2004, dated 2008).

Legend:
GABAA α1β2γ2 = biological target: T1, GABAA α1β2γ2 (Homo sapiens, UniProt P14867+P18507+P47870); experiment: 35S-TBPS binding assay, GABAA α1β2γ2; settings: 35S-TBPS (5 nM) competition, GABA 1 μM, HEK293 cell membranes, 2 hours at room temperature; for IC50: read-out: pIC50 α1β2γ2 (converted)
T1 construct: expressed in transfected cells; host or cells: HEK293
Experimental: (§1) The binding assay is based on the assay reported by K. Gee et al., Eur. J. Pharmacol. 1987 136:419-423.
(§2) Homogenate preparation: Membrane preparations of HEK293 cells containing either GABAA α1β2γ2 or GABAA α2β3γ2 constructs were performed according to a modified procedure previously described by Gee et al. (supra). Whole HEK 293 cells in D-PBS (calcium/magnesium free) buffer adjusted to pH 7.4 were centrifuged at 7,280×g for 20 m. After discarding the supernatant, the pellet was resuspended in the buffer and centrifuged at 1,820×g for 10 m. Afterwards, the supernatant was discarded and the pellet resuspended in ice-cold preparation buffer (50 mM Tris HCl pH 7.4, 4° C. and 150 mM KCl), homogenized for 30 sec using a Brinkmann Polytron PT3000 (setting 6) and centrifuged at 48,000×g for 30 m at 4° C. The centrifugation and homogenization procedure was repeated two more times for a total of 3 times before resuspending the membranes at a final protein concentration of 0.5 mg/mL. Aliquots (30 mL) of the final membrane preparation were then centrifuged at 48,000×g for 30 m, and the resulting pellets were stored at −80° C. until required.
(§3) 35S-TBPS binding assay. Membrane pellets containing either GABAA α1β2γ2 or GABAA α2β3γ2 constructs were thawed on ice, resuspended in 10 mL of 50 mM Tris HCl pH 7.4, 4° C. and 150 mM KCl and centrifuged at 48,000×g, 30 m at 4° C. After discarding the supernatant, the pellet was resuspended in 30 mL incubation buffer (50 mM Tris HCl pH 7.4, 25° C. and 150 mM KCl) at approximately 0.5 mg/mL protein concentration. In ^35S-TBPS competition studies, HEK293 membranes were incubated with ^35S-TBPS (5 nM final) and GABA (1 μM) in the absence or presence of competitor at concentrations ranging from 0.01 nM to 10 μM in 125 μL incubation buffer for 2 hours at room temperature (˜22° C.). Non-specific binding was assayed with picrotoxin (100 μM final concentration). […] Measurement of bound radioactivity was performed using a Packard Microplate 96 well topcount scintillation counter. […]

GABAA α2β3γ2 = biological target: T2, GABAA α2β3γ2 (Homo sapiens, UniProt P18507+P28472+P47869); experiment: 35S-TBPS binding assay, GABAA α2β3γ2; settings: 35S-TBPS (5 nM) competition, GABA 1 μM, HEK293 cell membranes, 2 hours at room temperature; for IC50: read-out: pIC50 α2β3γ2 (converted)
T2 construct: expressed in transfected cells; host or cells: HEK293
Experimental: as §1, §2, §3

T2 sequence (P47869 29-451): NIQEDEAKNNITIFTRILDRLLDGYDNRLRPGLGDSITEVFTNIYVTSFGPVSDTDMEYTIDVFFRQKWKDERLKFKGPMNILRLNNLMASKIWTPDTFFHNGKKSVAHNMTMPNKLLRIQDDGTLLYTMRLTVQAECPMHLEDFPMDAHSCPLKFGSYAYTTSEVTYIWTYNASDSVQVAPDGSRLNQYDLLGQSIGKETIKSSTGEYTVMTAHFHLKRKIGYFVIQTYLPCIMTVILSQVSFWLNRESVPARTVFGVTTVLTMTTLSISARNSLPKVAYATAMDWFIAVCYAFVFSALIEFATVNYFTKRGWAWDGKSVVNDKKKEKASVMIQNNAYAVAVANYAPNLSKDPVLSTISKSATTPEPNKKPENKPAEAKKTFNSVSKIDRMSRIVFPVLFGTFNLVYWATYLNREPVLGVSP
T2 sequence (P28472 26-473): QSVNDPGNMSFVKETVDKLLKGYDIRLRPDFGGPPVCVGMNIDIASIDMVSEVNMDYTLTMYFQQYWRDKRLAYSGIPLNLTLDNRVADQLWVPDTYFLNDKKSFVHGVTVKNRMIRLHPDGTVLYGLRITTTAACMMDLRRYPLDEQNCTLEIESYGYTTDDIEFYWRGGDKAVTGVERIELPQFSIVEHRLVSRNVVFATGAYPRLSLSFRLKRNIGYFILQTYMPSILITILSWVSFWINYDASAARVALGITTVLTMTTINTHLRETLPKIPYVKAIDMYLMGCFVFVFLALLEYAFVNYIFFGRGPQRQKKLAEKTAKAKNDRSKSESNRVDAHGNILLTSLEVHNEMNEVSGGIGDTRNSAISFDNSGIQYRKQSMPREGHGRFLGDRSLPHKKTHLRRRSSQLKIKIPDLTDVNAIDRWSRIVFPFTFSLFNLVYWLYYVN
T2 sequence (P18507 40-475): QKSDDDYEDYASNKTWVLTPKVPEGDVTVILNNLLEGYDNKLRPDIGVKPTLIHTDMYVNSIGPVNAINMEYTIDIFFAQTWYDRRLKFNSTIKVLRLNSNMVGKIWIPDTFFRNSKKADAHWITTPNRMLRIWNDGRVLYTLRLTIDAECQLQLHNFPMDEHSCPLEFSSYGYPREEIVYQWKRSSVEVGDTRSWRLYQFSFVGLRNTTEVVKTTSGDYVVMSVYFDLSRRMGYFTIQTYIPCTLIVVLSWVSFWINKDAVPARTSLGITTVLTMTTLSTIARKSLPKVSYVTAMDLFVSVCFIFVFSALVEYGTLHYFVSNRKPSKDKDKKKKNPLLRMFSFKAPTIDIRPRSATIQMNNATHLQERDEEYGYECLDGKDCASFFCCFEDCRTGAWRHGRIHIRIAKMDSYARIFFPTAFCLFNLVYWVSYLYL
T1 sequence (P14867 28-456): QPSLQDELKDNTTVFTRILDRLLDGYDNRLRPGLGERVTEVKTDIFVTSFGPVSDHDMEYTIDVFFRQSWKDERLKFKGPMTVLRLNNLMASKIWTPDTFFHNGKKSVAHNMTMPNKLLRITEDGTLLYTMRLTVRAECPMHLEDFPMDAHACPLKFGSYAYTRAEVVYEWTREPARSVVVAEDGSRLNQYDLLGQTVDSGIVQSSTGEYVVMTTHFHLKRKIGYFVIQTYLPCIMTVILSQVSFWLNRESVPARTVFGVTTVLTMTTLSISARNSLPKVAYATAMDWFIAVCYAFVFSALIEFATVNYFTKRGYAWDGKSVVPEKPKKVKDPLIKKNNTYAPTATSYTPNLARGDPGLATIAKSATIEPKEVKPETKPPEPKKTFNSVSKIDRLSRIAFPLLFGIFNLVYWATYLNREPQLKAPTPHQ
T1 sequence (P47870 25-512 limits assumed): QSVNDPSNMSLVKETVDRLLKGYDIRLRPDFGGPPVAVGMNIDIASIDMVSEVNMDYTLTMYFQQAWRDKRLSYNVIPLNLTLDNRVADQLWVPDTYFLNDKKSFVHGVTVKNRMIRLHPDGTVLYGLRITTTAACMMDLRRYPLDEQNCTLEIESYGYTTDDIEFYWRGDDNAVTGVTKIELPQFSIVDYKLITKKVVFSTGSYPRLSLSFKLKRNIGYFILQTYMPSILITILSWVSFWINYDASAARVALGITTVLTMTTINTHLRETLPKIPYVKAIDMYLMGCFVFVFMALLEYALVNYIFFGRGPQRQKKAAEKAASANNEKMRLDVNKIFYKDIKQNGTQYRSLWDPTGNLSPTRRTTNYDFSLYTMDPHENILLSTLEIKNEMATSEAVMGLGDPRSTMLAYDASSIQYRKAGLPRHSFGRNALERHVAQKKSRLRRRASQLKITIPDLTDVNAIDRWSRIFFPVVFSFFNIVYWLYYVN
T1 sequence (P18507 40-475): as the sequence (P18507 40-475) above

Molecule	melting point [°C]	further results
Cn1nc2c(c1Cl)CCCN2c1ccc(Cl)cc1Cl [Compound 1-9, 3-chloro-7-(2,4-dichloro-phenyl)-2-methyl-4,5,6,7-tetrahydro-2H-pyrazolo [3,4-b]pyridine]	94.5 to 95.5	IC50 (GABAA α1β2γ2): 1200 nM; IC50 (GABAA α2β3γ2): 96.4 nM
CCCN(CC1CC1)C(=O)c1c2c(nn1C)N(c1c(C)cc(C)cc1Cl)CCC2 [Compound 7-1, 7-(2-Chloro-4,6-dimethylphenyl)-2-methyl-4,5,6,7-tetrahydro-2H-pyrazolo[3,4-b]pyridine-3-carboxylic acidcyclopropylmethylpropyl amide]	120.6 to 122	–
Cn1nc2c(c1N)CCCN2c1ccc(Cl)cc1Cl [Compound 5-43, 7-(2,4-Dichloro-phenyl)-2-methyl-4,5,6,7-tetrahydro-2H-pyrazolo[3,4-b]pyridin-3-ylamine]	176.9 to 178.9	–
CCCC(c1cccs1)c1c2c(nn1C)N(c1c(C)cc(C)cc1C)CCC2 (stereo not drawn) [Compound 4-3, 2-Methyl-3-(1-thiophen-2-ylbutyl)-7-(2,4,6-trimethylphenyl)-4,5,6,7-tetrahydro-2H-pyrazolo[3,4-b]pyridine]	87.6 to 90.3	–
Cc1c2c(nn1C)N(c1ccc(Cl)cc1Cl)CCC2 [Compound 2-17, 7-(2,4-Dichloro-phenyl)-2,3-dimethyl-4,5,6,7-tetrahydro-2H-pyrazolo[3,4-b]pyridine]	66.6 to 76.6	IC50 (GABAA α1β2γ2): 2840 nM; IC50 (GABAA α2β3γ2): 105 nM
CCCN(CCC)c1c2c(nn1C)N(c1c(C)cc(C)cc1Cl)CCC2 [Compound 5-5, [7-(2-Chloro-4,6-dimethylphenyl)-2-methyl-4,5,6,7-tetrahydro-2H-pyrazolo[3,4-b]pyridin-3-yl]dipropylamine]	90 to 91	–
CCCN(CCCC#N)c1c2c(nn1C)N(c1c(C)cc(C)cc1C)CCC2 [Compound 5-48, 4-{[2-Methyl-7-(2,4,6-trimethyl-phenyl)-4,5,6,7-tetrahydro-2H-pyrazolo [3,4-b]pyridin-3-yl]-propyl-amino}-butyronitrile]	108.3 to 111	–
CCCC(O)(CCC)c1c2c(nn1C)N(c1c(C)cc(C)cc1Cl)CCC2 [Compound 2-1, 4-[7-(2-Chloro-4,6-dimethylphenyl)-2-methyl-4,5,6,7-tetrahydro-2H-pyrazolo[3,4-b]pyridin-3-yl]heptan-4-ol]	129 to 130	–
Cc1cc(C)c(N2CCCc3c2nn(C)c3Br)c(C)c1 [Compound 1-3, 3-Bromo-2-methyl-7-(2,4,6-trimethyl-phenyl)-4,5,6,7-tetrahydro-2H-pyrazolo[3,4-b]pyridine]	94.6 to 97.9	–
COCC(=O)Nc1c2c(nn1C)N(c1c(C)cc(C)cc1C)CCC2 [Compound 7-4, 2-Methoxy-N-[2-methyl-7-(2,4,6-trimethyl-phenyl)-4,5,6,7-tetrahydro-2H-pyrazolo[3,4-b]pyridin-3-yl]acetamide]	133.8 to 135	–
Cc1cc(C)c(N2CCCc3c2nn(C)c3C#N)c(C)c1 [Compound 2-22, 2-Methyl-7-(2,4,6-trimethyl-phenyl)-4,5,6,7-tetrahydro-2H-pyrazolo[3,4-b] pyridine-3-carbonitrile]	128.5 to 136.6	–
CCC(COC)Nc1c2c(nn1C)N(c1c(C)cc(C)cc1C)CCC2 (stereo not drawn) [Compound 5-40, (1-Methoxymethylpropyl)-[2-methyl-7-(2,4,6-trimethylphenyl)-4,5,6,7-tetrahydro-2H-pyrazolo[3,4-b]pyridin-3-yl]-amine]	96.5 to 102.5	–
COc1ccc(N2CCCc3c2nn(C)c3Br)c(C)c1 [Compound 1-7, 3-Bromo-2-methyl-7-(4-methoxy 2-methyl-phenyl)-4,5,6,7-tetrahydro-2H-pyrazolo[3,4-b]pyridine]	101.7 to 104.1	–
Cn1nc2c(c1Br)CCCN2c1c(Cl)cc(Cl)cc1Cl [Compound 1-6, 3-Bromo-2-methyl-7-(2,4,6-trichloro-phenyl)-4,5,6,7-tetrahydro-2H-pyrazolo[3,4-b]pyridine]	100 to 101	–
Cc1cc(C)c(N2CCCc3c2nn(C)c3NC(=O)OC(C)(C)C)c(Cl)c1 [Compound 5-3, [7-(2-Chloro-4,6-dimethylphenyl)-2-methyl-4,5,6,7-tetrahydro-2H-pyrazolo[3,4-b]pyridin-3-yl]carbamic acid tert-butyl ester]	171.4 to 175.7	–
CNc1c2c(nn1C)N(c1c(C)cc(C)cc1C)CCC2 [Compound 5-49, Methyl-[2-methyl-7-(2,4,6-trimethyl-phenyl)-4,5,6,7-tetrahydro-2H-pyrazolo[3,4-b]pyridin-3-yl]-amine]	143.3 to 144.9	–
7-(2,4-Dichloro-phenyl)-3-ethynyl-2-methyl-4,5,6,7-tetrahydro-2H-|pyrazolo[3,4-b]pyridine [Compound 3-10]	–	pIC50 α1β2γ2 (GABAA α1β2γ2): 5.423; pIC50 α2β3γ2 (GABAA α2β3γ2): 6.883
CCC(CC)Nc1c2c(nn1C)N(c1c(C)cc(C)cc1C)CCC2 [Compound 5-36, (1-Ethylpropyl)-[2-methyl-7-(2,4,6-trimethyl-phenyl)-4,5,6,7-tetrahydro-2H-pyrazolo[3,4-b]pyridin-3-yl]-amine]	99.3 to 104.9	–
Cn1nc2c(c1Cl)CCCN2c1ccc(Cl)cc1 [Compound 1-10, 3-chloro-7-(4-chloro-phenyl)-2-methyl-4,5,6,7-tetrahydro-2H-pyrazolo [3,4-b]pyridine]	96.5 to 97.5	–
